{
  "source": "PubChem BioAssay AID248",
  "about": "(DTP/NCI, 2004)",
  "system": "L1210 leukemia ip in BDF1 mice, survival T/C",
  "assay": "NCI In Vivo Anticancer Drug Screen. Data for tumor model L1210 Leukemia (intraperitoneal) in B6D2F1 (BDF1) mice",
  "settings": "endpoint: mean survival time, higher = longer survival",
  "method_in_brief": "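Transplantable tumor model; survival measured in treated vs vehicle control mice. Value = treated/control.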",
  "key": {"[1]": {"settings": "dose: 100.0 mg/kg/injection, schedule: Q04DX002 (ip), vehicle: saline with Tween-80"}, "[2]": {"settings": "dose: 200.0 mg/kg/injection, schedule: Q04DX002 (ip), vehicle: saline with Tween-80"}, "[3]": {"settings": "dose: 100.0 mg/kg/injection, schedule: Q04DX003 (ip), vehicle: saline"}},
  "note": "“And” between values parts separate entries of the source, which are not always exact repeats. Identical values can stand only once. Inconclusive results and toxic doses are left out.",
  "data": [
    {"compound": "[N-]=C=C(C(=O)c1ccccc1)[n+]1cc(Br)cc2ccccc21", "values": [
      {"measurement": "T/C", "setting": "[1]", "value": "94 % of control"},
      {"measurement": "T/C", "setting": "[2]", "value": "94 % of control"},
      {"measurement": "T/C", "setting": "dose: 400.0 mg/kg/injection, schedule: Q04DX002 (ip), vehicle: saline with Tween-80", "value": "94 % of control"}
    ]},
    {"compound": "CC1=CC(C)C(=O)N(CC(C)N2CCCC2)C(C)=C1", "note": "(stereo not drawn)", "values": [
      {"measurement": "T/C", "setting": "dose: 75.0 mg/kg/injection, schedule: Q01DX001 (ip), vehicle: carboxymethylcellulose (CMC)", "value": "102 % of control"}
    ]},
    {"compound": "O=C(CCl)Nc1ccc(SSc2ccc(NC(=O)CCl)cc2)cc1", "values": [
      {"measurement": "T/C", "setting": "dose: 50.0 mg/kg/injection, schedule: Q04DX003 (ip), vehicle: Klucel (hydroxypropylcellulose) (HPC)", "value": "95 % of control"},
      {"measurement": "T/C", "setting": "dose: 100.0 mg/kg/injection, schedule: Q04DX003 (ip), vehicle: Klucel (hydroxypropylcellulose) (HPC)", "value": "101 % of control"},
      {"measurement": "T/C", "setting": "dose: 200.0 mg/kg/injection, schedule: Q04DX003 (ip), vehicle: Klucel (hydroxypropylcellulose) (HPC)", "value": "101 % of control"}
    ]},
    {"compound": "O=C1Oc2ccccc2C(=O)Oc2ccccc2C(=O)Oc2ccccc2C(=O)Oc2ccccc21", "values": [
      {"measurement": "T/C", "setting": "dose: 75.0 mg/kg/injection, schedule: Q01DX001 (ip), vehicle: saline", "value": "87 % of control"}
    ]},
    {"compound": "CCCCCCC(CCC1CCCCC1)C(=O)O", "note": "(stereo not drawn)", "values": [
      {"measurement": "T/C", "setting": "dose: 100.0 mg/kg/injection, schedule: Q01DX001 (ip), vehicle: saline with Tween-80", "value": "88 % of control"},
      {"measurement": "T/C", "setting": "dose: 200.0 mg/kg/injection, schedule: Q01DX001 (ip), vehicle: saline with Tween-80", "value": "96 % of control"},
      {"measurement": "T/C", "setting": "dose: 400.0 mg/kg/injection, schedule: Q01DX001 (ip), vehicle: saline with Tween-80", "value": "92 % of control"}
    ]},
    {"compound": "CCOC(=O)C1(C(=O)OCC)C/C=C/CC(C(=O)OCC)(C(=O)OCC)C/C=C/C1", "values": [
      {"measurement": "T/C", "setting": "dose: 100.0 mg/kg/injection, schedule: Q01DX009 (ip), vehicle: saline", "value": "90 % of control"},
      {"measurement": "T/C", "setting": "[3]", "value": "98 % of control"},
      {"measurement": "T/C", "setting": "dose: 200.0 mg/kg/injection, schedule: Q01DX009 (ip), vehicle: saline", "value": "102 % of control"},
      {"measurement": "T/C", "setting": "dose: 200.0 mg/kg/injection, schedule: Q04DX003 (ip), vehicle: saline", "value": "95 % of control"},
      {"measurement": "T/C", "setting": "dose: 400.0 mg/kg/injection, schedule: Q01DX009 (ip), vehicle: saline", "value": "92 % of control"},
      {"measurement": "T/C", "setting": "dose: 400.0 mg/kg/injection, schedule: Q04DX003 (ip), vehicle: saline", "value": "90 % of control"}
    ]},
    {"compound": "CCOC(=O)C(C=O)(NC(=O)c1ccccc1)OCC", "note": "(stereo not drawn)", "values": [
      {"measurement": "T/C", "setting": "dose: 100.0 mg/kg/injection, schedule: Q04DX003 (ip), vehicle: saline with Tween-80", "value": "94 % of control"},
      {"measurement": "T/C", "setting": "dose: 200.0 mg/kg/injection, schedule: Q04DX003 (ip), vehicle: saline with Tween-80", "value": "101 % of control"},
      {"measurement": "T/C", "setting": "dose: 400.0 mg/kg/injection, schedule: Q04DX003 (ip), vehicle: saline with Tween-80", "value": "105 % of control"}
    ]},
    {"compound": "COC(=O)N1C=Cc2ccccc2C1C#N", "note": "(stereo not drawn)", "values": [
      {"measurement": "T/C", "setting": "[3]", "value": "107 % of control"}
    ]},
    {"compound": "CCN(CC)CCOc1ccc(N=N/C(C(C)=O)=C(\\C)O)cc1", "values": [
      {"measurement": "T/C", "setting": "dose: 25.0 mg/kg/injection, schedule: Q04DX002 (ip), vehicle: saline", "value": "93 % of control and 96 % of control"},
      {"measurement": "T/C", "setting": "dose: 50.0 mg/kg/injection, schedule: Q04DX002 (ip), vehicle: saline", "value": "101 % of control and 104 % of control"}
    ]},
    {"compound": "O=C(O)c1cc([N+](=O)[O-])cc([N+](=O)[O-])c1O", "values": [
      {"measurement": "T/C", "setting": "[1]", "value": "113 % of control"},
      {"measurement": "T/C", "setting": "[2]", "value": "104 % of control"}
    ]},
    {"compound": "COc1ccc(/C=N/N=C(N)N)cc1S(=O)(=O)O", "values": [
      {"measurement": "T/C", "setting": "dose: 15.0 mg/kg/injection, schedule: Q01DX Z (ip), vehicle: saline", "value": "95 % of control"},
      {"measurement": "T/C", "setting": "dose: 30.0 mg/kg/injection, schedule: Q01DX Z (ip), vehicle: saline", "value": "90 % of control"},
      {"measurement": "T/C", "setting": "dose: 60.0 mg/kg/injection, schedule: Q01DX Z (ip), vehicle: saline", "value": "88 % of control"},
      {"measurement": "T/C", "setting": "dose: 60.0 mg/kg/injection, schedule: Q01DX Z (oral), vehicle: saline", "value": "95 % of control"},
      {"measurement": "T/C", "setting": "dose: 120.0 mg/kg/injection, schedule: Q01DX Z (ip), vehicle: saline", "value": "92 % of control"},
      {"measurement": "T/C", "setting": "dose: 120.0 mg/kg/injection, schedule: Q01DX Z (oral), vehicle: saline", "value": "97 % of control"},
      {"measurement": "T/C", "setting": "dose: 240.0 mg/kg/injection, schedule: Q01DX Z (oral), vehicle: saline", "value": "97 % of control"},
      {"measurement": "T/C", "setting": "dose: 480.0 mg/kg/injection, schedule: Q01DX Z (oral), vehicle: saline", "value": "98 % of control"}
    ]},
    {"compound": "N#C[Se]C[Se]C#N", "values": [
      {"measurement": "T/C", "setting": "dose: 1.56 mg/kg/injection, schedule: Q01DX001 (ip), vehicle: saline", "value": "95 % of control"},
      {"measurement": "T/C", "setting": "dose: 3.13 mg/kg/injection, schedule: Q01DX001 (ip), vehicle: saline", "value": "100 % of control"},
      {"measurement": "T/C", "setting": "dose: 6.25 mg/kg/injection, schedule: Q01DX001 (ip), vehicle: saline", "value": "100 % of control"}
    ]},
    {"compound": "Cc1cc2c(N)[nH]c(=O)nc2s1", "values": [
      {"measurement": "T/C", "setting": "dose: 100.0 mg/kg/injection, schedule: Q04DX003 (ip), vehicle: water", "value": "90 % of control"},
      {"measurement": "T/C", "setting": "dose: 200.0 mg/kg/injection, schedule: Q04DX003 (ip), vehicle: water", "value": "93 % of control"}
    ]},
    {"compound": "CC1(C)CNC2OC1NCC2(C)C", "values": [
      {"measurement": "T/C", "setting": "dose: 100.0 mg/kg/injection, schedule: Q01DX001 (ip), vehicle: saline sonified", "value": "112 % of control"},
      {"measurement": "T/C", "setting": "dose: 200.0 mg/kg/injection, schedule: Q01DX001 (ip), vehicle: saline sonified", "value": "89 % of control"},
      {"measurement": "T/C", "setting": "dose: 400.0 mg/kg/injection, schedule: Q01DX001 (ip), vehicle: saline sonified", "value": "95 % of control"}
    ]},
    {"compound": "NNC(=O)CNc1cccc(Cl)c1", "values": [
      {"measurement": "T/C", "setting": "dose: 100.0 mg/kg/injection, schedule: Q04DX002 (ip), vehicle: Klucel (hydroxypropylcellulose) (HPC)", "value": "101 % of control"},
      {"measurement": "T/C", "setting": "dose: 200.0 mg/kg/injection, schedule: Q04DX002 (ip), vehicle: Klucel (hydroxypropylcellulose) (HPC)", "value": "108 % of control"}
    ]}
  ]
}
